The results in this text go back to US10266513B2 (Pfizer Inc., priority 2012, dated 2019).

The target of this experiment is human full-length BTK Kinase (Homo sapiens (Human), UniProt Q06187). The experiment in a line: Human BTK LanthaScreen Assay (TR-FRET). The conditions noted are these: 50 μM ATP, FAM-Srctide peptide substrate, read-out: BTK Inhibition IC50. Type of experiment: biochemical. The text has this: Human BTK LanthaScreen Assay
Chain of human full-length BTK Kinase (Q06187 whole entry): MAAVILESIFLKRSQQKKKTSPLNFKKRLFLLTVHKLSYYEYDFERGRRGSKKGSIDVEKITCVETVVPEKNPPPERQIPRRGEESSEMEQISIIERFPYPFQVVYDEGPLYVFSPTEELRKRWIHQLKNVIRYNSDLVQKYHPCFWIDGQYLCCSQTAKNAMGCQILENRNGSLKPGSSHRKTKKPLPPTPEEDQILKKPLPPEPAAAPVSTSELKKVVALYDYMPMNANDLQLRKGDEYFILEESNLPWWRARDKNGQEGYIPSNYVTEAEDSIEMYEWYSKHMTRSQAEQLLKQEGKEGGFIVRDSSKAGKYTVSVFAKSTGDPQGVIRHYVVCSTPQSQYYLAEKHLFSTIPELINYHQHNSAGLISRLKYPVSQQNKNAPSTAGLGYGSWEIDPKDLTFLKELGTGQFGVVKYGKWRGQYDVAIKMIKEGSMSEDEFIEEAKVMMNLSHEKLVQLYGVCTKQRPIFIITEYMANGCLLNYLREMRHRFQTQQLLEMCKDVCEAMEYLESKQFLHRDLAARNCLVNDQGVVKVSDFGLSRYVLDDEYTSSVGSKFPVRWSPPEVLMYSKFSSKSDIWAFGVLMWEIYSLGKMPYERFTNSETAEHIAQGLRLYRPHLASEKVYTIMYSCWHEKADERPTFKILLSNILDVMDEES
For the molecule `N#CN1CCCC(n2nc(-c3ccc(Oc4cc(F)ccc4F)cc3)c(C(N)=O)c2N)C1` (centres unmarked) [Example 43, 5-amino-1-(1-cyanopiperidin-3-yl)-3-[4-(2,5-difluorophenoxy)phenyl]-1H-pyrazole-4-carboxamide], the IC50 came out at 0.77 nM.
As to `CC(C)Oc1ccc(Oc2ccc(-c3nn(C4CCCN(C#N)C4)c(N)c3C(N)=O)cc2)cc1` (centres unmarked) [Example 44, 5-amino-1-(1-cyanopiperidin-3-yl)-3-[4-(4-isopropoxyphenoxy)phenyl]-1H-pyrazole-4-carboxamide], the IC50 was found to be 24.4 nM.
The value for `N#CN1CCCC(n2nc(-c3ccc(Oc4cc(F)ccc4Cl)cc3)c(C(N)=O)c2N)C1` (centres unmarked) [Example 45, 5-amino-3-[4-(2-chloro-5-fluoro-phenoxy)phenyl]-1-(1-cyanopiperidin-3-yl)-1H-pyrazole-4-carboxamide] was 0.81 nM; that for `N#CN1CCCC(n2nc(-c3ccc(Oc4ccc(F)c(OC(F)(F)F)c4)cc3)c(C(N)=O)c2N)C1` (centres unmarked) [Example 46, 5-amino-1-(1-cyanopiperidin-3-yl)-3-{4-[4-fluoro-3-(trifluoromethoxy)-phenoxy]phenyl}-1H-pyrazole-4-carboxamide] was 6.4 nM; that for `COc1cc(F)ccc1Oc1ccc(-c2nn(C3CCCN(C#N)C3)c(N)c2C(N)=O)cc1` (centres unmarked) [Example 47, 5-amino-1-(1-cyanopiperidin-3-yl)-3-{4-[4-fluoro-2-methoxyphenoxy]phenyl}-1H-pyrazole-4-carboxamide] was 1.6 nM.
As for `COc1cccc(Oc2ccc(-c3nn(C4CCCN(C#N)C4)c(N)c3C(N)=O)cc2)c1` (centres unmarked) [Example 48, 5-amino-1-(1-cyanopiperidin-3-yl)-3-[4-(3-methoxyphenoxy)phenyl]-1H-pyrazole-4-carboxamide], the concentration for half-maximal inhibition (IC50) is 0.44 nM.
For `N#CN1CCCC(n2nc(-c3ccc(Oc4cc(Cl)ccc4F)cc3)c(C(N)=O)c2N)C1` (centres unmarked) [Example 49, 5-amino-3-[4-(5-chloro-2-fluorophenoxy)phenyl]-1-(1-cyanopiperidin-3-yl)-1H-pyrazole-4-carboxamide], the IC50 worked out at 2.2 nM.
`N#CN1CCCC(n2nc(-c3ccc(Oc4ccc(Cl)cc4Cl)cc3)c(C(N)=O)c2N)C1` (centres unmarked) [Example 50, 5-amino-1-(1-cyanopiperidin-3-yl)-3-[4-(2,4-dichlorophenoxy)phenyl]-1H-pyrazole-4-carboxamide]: the IC50 is 1.8 nM.
To `N#CN1CCCC(n2nc(-c3ccc(Oc4cc(F)cc(Cl)c4)cc3)c(C(N)=O)c2N)C1` (centres unmarked) [Example 51, 5-amino-3-[4-(3-chloro-5-fluoro-phenoxy)phenyl]-1-(1-cyanopiperidin-3-yl)-1H-pyrazole-4-carboxamide] belongs 1.9 nM; to `N#CN1CCCC(n2nc(-c3ccc(Oc4ccccc4C(F)(F)F)cc3)c(C(N)=O)c2N)C1` (centres unmarked) [Example 52, 5-amino-1-(1-cyanopiperidin-3-yl)-3-{4-[2-(trifluoromethyl)phenoxy]-phenyl}-1H-pyrazole-4-carboxamide], 2.9 nM.
For `N#CN1CCCC(n2nc(-c3ccc(Oc4cccc(Cl)c4)cc3)c(C(N)=O)c2N)C1` (centres unmarked) [Example 53, 5-amino-3-[4-(3-chlorophenoxy)-phenyl]-1-(1-cyanopiperidin-3-yl)-1H-pyrazole-4-carboxamide], the IC50 came to 1.7 nM.
On to `Cc1c(F)cccc1Oc1ccc(-c2nn(C3CCCN(C#N)C3)c(N)c2C(N)=O)cc1` (centres unmarked) [Example 54, 5-amino-1-(1-cyanopiperidin-3-yl)-3-[4-(3-fluoro-2-methylphenoxy)phenyl]-1H-pyrazole-4-carboxamide], for which the IC50 came out at 1.2 nM.
For the molecule `N#CN1CCCC(n2nc(-c3ccc(Oc4cc(Cl)ccc4Cl)cc3)c(C(N)=O)c2N)C1` (centres unmarked) [Example 55, 5-amino-1-(1-cyanopiperidin-3-yl)-3-[4-(2,5-dichlorophenoxy)phenyl]-1H-pyrazole-4-carboxamide], the IC50 was 2.2 nM.
Consider `N#CN1CCCC(n2nc(-c3ccc(Oc4ccccc4Cl)cc3)c(C(N)=O)c2N)C1` (centres unmarked) [Example 56, 5-amino-3-[4-(2-chlorophenoxy)-phenyl]-1-(1-cyanopiperidin-3-yl)-1H-pyrazole-4-carboxamide], for which the IC50 was 1.3 nM.
